Test: xn = mol fraction of the nth substance listed
Details: 101 kPa, Liquid; for speed of sound: Sing-around technique in a fixed-path interferometer; for mass density: Vibrating tube method

COCCOCCOCCO [2-[2-(2-methoxyethoxy)ethoxy]ethanol] + CCCCn1cc[n+](C)c1.F[B-](F)(F)F
Details	mass density [kg/m3]	speed of sound [m/s]
288.15 K, x2 = 0	1050.1	1470
288.15 K, x2 = 0.024	1056.87	1484
288.15 K, x2 = 0.107	1076.66	1510
288.15 K, x2 = 0.2241	1099.67	1541
288.15 K, x2 = 0.3275	1118.29	1555
288.15 K, x2 = 0.4285	1135.35	1564
288.15 K, x2 = 0.5067	1147.58	1570
288.15 K, x2 = 0.6282	1164.47	1575
288.15 K, x2 = 0.7072	1174.32	1581
288.15 K, x2 = 0.8256	1188.11	1584
288.15 K, x2 = 0.913	1197.84	1585
293.15 K, x2 = 0	1045.75	1452
293.15 K, x2 = 0.024	1052.52	1466
293.15 K, x2 = 0.107	1072.57	1492
293.15 K, x2 = 0.2241	1095.95	1519
293.15 K, x2 = 0.3275	1114.5	1539
293.15 K, x2 = 0.4285	1131.41	1550
293.15 K, x2 = 0.5067	1143.6	1555
293.15 K, x2 = 0.6282	1160.74	1561
293.15 K, x2 = 0.7072	1170.79	1568
293.15 K, x2 = 0.8256	1184.68	1572
293.15 K, x2 = 0.913	1194.26	1573
298.15 K, x2 = 0	1041.32	1436
298.15 K, x2 = 0.024	1048.15	1450
298.15 K, x2 = 0.107	1068.36	1475
298.15 K, x2 = 0.2241	1091.87	1503
298.15 K, x2 = 0.3275	1110.48	1524
298.15 K, x2 = 0.4285	1127.42	1533
298.15 K, x2 = 0.5067	1139.64	1541
298.15 K, x2 = 0.6282	1156.88	1548
298.15 K, x2 = 0.7072	1167	1555
298.15 K, x2 = 0.8256	1181.03	1560
298.15 K, x2 = 0.913	1190.69	1560
303.15 K, x2 = 0	1036.84	1421
303.15 K, x2 = 0.024	1043.76	1435
303.15 K, x2 = 0.107	1064.17	1458
303.15 K, x2 = 0.2241	1087.79	1488
303.15 K, x2 = 0.3275	1106.46	1509
303.15 K, x2 = 0.4285	1123.48	1519
303.15 K, x2 = 0.5067	1135.77	1528
303.15 K, x2 = 0.6282	1153.12	1534
303.15 K, x2 = 0.7072	1163.33	1543
303.15 K, x2 = 0.8256	1177.39	1548
303.15 K, x2 = 0.913	1187	1549
308.15 K, x2 = 0	1032.27	1408
308.15 K, x2 = 0.024	1039.37	1421
308.15 K, x2 = 0.107	1060.13	1444
308.15 K, x2 = 0.2241	1083.76	1475
308.15 K, x2 = 0.3275	1102.44	1494
308.15 K, x2 = 0.4285	1119.54	1507
308.15 K, x2 = 0.5067	1131.91	1516
308.15 K, x2 = 0.6282	1149.37	1523
308.15 K, x2 = 0.7072	1159.63	1530
308.15 K, x2 = 0.8256	1173.68	1536
308.15 K, x2 = 0.913	1183.36	1538
313.15 K, x2 = 0	1027.76	1393
313.15 K, x2 = 0.024	1034.9	1406
313.15 K, x2 = 0.107	1055.73	1431
313.15 K, x2 = 0.2241	1079.59	1461
313.15 K, x2 = 0.3275	1098.41	1483
313.15 K, x2 = 0.4285	1115.62	1493
313.15 K, x2 = 0.5067	1128.04	1503
313.15 K, x2 = 0.6282	1145.63	1511
313.15 K, x2 = 0.7072	1155.93	1518
313.15 K, x2 = 0.8256	1170.13	1524
313.15 K, x2 = 0.913	1179.9	1527
318.15 K, x2 = 0	1023.3	1376
318.15 K, x2 = 0.024	1030.54	1390
318.15 K, x2 = 0.107	1051.51	1415
318.15 K, x2 = 0.2241	1075.43	1447
318.15 K, x2 = 0.3275	1094.37	1468
318.15 K, x2 = 0.4285	1111.73	1480
318.15 K, x2 = 0.5067	1124.25	1490
318.15 K, x2 = 0.6282	1141.8	1500
318.15 K, x2 = 0.7072	1152	1506
318.15 K, x2 = 0.8256	1166.14	1513
318.15 K, x2 = 0.913	1176	1516

From the NIST ThermoML archive (doi:10.1021/je2010209)
